The values below come from patent US11242337B2, “Compounds useful for treating gastrointestinal tract disorders” (Ardelyx, Inc., priority 2017, dated 2022).

Read-outs that look alike come from different tables or passages of the source.

One assay deals with T1, NHE3 (Homo sapiens, UniProt P48764).
T1 construct: expressed in transfected cells
T1 sequence (P48764 26-834): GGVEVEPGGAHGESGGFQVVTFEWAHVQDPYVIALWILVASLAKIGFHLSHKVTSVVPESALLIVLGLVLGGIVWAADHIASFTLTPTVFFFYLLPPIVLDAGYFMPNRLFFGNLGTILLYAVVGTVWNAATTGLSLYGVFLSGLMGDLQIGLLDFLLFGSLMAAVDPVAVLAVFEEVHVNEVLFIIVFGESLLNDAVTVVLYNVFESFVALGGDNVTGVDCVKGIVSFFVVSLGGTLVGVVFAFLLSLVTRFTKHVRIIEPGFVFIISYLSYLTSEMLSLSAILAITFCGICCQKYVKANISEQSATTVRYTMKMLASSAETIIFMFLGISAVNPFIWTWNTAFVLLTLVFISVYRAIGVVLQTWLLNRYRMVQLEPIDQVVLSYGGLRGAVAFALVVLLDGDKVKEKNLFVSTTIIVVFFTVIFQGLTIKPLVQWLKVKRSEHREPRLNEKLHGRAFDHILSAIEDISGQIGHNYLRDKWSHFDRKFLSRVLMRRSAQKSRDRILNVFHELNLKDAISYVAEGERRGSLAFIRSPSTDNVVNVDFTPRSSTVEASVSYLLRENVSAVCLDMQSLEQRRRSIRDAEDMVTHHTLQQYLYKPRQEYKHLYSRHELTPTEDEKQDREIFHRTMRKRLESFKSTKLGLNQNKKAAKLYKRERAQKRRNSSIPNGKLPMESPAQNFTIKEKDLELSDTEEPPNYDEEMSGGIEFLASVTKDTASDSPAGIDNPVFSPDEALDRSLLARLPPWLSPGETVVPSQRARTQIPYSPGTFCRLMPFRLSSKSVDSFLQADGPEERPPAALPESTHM
T1 sequence (Q99653 2-195 partner limits assumed): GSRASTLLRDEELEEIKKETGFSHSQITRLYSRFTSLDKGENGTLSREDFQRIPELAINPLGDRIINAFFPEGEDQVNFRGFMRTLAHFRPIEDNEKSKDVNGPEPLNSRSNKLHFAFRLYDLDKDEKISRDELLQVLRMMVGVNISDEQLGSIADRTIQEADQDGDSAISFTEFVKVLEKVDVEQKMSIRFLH
Description: Cell-based assay of NHE-3 activity (persistent inhibition), human. The following applies: human Persistence, 60 min incubation then washout. Put shortly:
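PS120 fibroblasts expressing human NHE3 with NHERF2 exposed to 0-30 μM compound for 60 min at RT, then washed out; cells acid-loaded by NH4Cl prepulse with BCECF-AM and Na+-free buffer. Na+-driven pH recovery started 10 min post-washout; initial rate of BCECF ratio change (FLIPR) taken as activity.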

Assay [1] has as its system absorption of sodium from the intestinal lumen. Description: Inhibition of intestinal sodium absorption in mice. It counts as in vivo. The following applies: CD-1 mice, 15 mg/kg oral gavage twice daily; for Fecal fluid content (Δ from vehicle): day 3, change from vehicle group mean; for response vs control in vivo at 15 mg/kg: Mus musculus, 72 h, day 3, normalized to dietary sodium intake. The method, then:
Urinary and fecal sodium excretions were measured to assess the ability of selected example compounds to inhibit the absorption of sodium from the intestinal lumen. In addition, an assessment of the absence or presence of diarrhea in response to compound treatment was made. Approximately eight-week old, male, CD-1 mice were purchased from Envigo (Livermore, Calif.), were housed 6 per cage and acclimated for at least 48 hours before study initiation. Animals were fed Harlan Teklad Global TD.160470 rodent chow (Madison, Wis.), standard laboratory rodent chow Harlan Teklad Global 2018 with the addition of 0.4% inorganic phosphorous. […] To initiate the study, mice were weighed and then individually placed in metabolic cages. Following a 3-day acclimation period to the metabolic cage, a 24-hr baseline collection of urine and feces was performed. […] Each day, measurements of body weight. 24-hour food intake, water intake, urine volume and wet fecal weight were recorded, along with any observation of diarrhea. Fecal samples were dried using a lyophilizer for at least 3 days, following which dry weight was recorded and fecal fluid content was calculated based on the difference between the wet and dry stool weights. Fecal fluid content on day 3 of compound treatment was calculated as a change from the vehicle group mean. For urine samples, the volumes were determined gravimetrically. Feces and urine were analyzed for sodium content by microwave plasma-atomic emission spectroscopy or ion chromatography, respectively. Urine samples were analyzed on an ion chromatography system (Thermo Fisher ICS-3000 or ICS-5000+) coupled with conductivity detectors. Chromatographic separation of cations was performed using an IonPac CS12A (Thermo Fisher) 2×250 mm analytical column with an isocratic elution using […] methanesulfonic acid. Concentrations were interpolated from a a standard curve (prepared in 10 mM HCl) for sodium ion based on retention time and peak area. Fecal sample analysis by Microwave Plasma Atomic Emission Spectrometry (MP-AES). Dry fecal samples were ground into a fine powder on a homogenizer and the ground samples (400-600 mg aliquots weighed) were digested with nitric acid by microwave method (Mars 6). These digested samples were diluted with 1% Nitric acid and analyzed on Agilent 4100 MP-AES. Concentrations were calculated relative to a standard curve (prepared in 1% Nitric acid) for sodium based on the signal intensity. Sodium was detected at a wavelength of 588.995 nm. Twenty-four-hour urinary sodium excretion (ma/24-hours) was calculated by multiplying urinary sodium concentration by 24-hour urine volume. Twenty-four-hour fecal sodium excretion (mg/24-hours) was calculated by multiplying fecal sodium concentration by 24-hour dry fecal weight. The urinary and fecal sodium excretion on day 3 of compound treatment were normalized to dietary sodium intake and expressed as a percentage of the vehicle mean.

Where [2] appears, read: read-out: Fecal Na Excretion (% of vehicle).
Where [3] appears, read: read-out: Urinary Na Excretion (% of vehicle).

`Cc1cc(Cl)cc2c1C[C@H](N(C)C)[C@H]2Oc1ccc(S(=O)(=O)NCCOCCOCCNC(=O)NCCCCNC(=O)NCCOCCOCCNS(=O)(=O)c2ccc(O[C@H]3c4cc(Cl)cc(C)c4C[C@@H]3N(C)C)c(F)c2)cc1F` [Example 24, 3-[2-(2-[2-[(4-[[(1S,2S)-6-Chloro-2-(dimethylamino)-4-methyl-2,3-dihydro-1H-inden-1-yl]oxy]-3-fluorobenzene)sulfonamido]ethoxy]ethoxy)ethyl]-1-[4-([[2-(2-[2-[(4-[[(1S,2S)-6-chloro-2-(dimethylamino)-4-methyl-2,3-dihydro-1H-inden-1-yl]oxy]-3-fluorobenzene)sulfonamido]ethoxy]ethoxy)ethyl]carbamoyl]amino)butyl]urea]: the “% inhibition” value on NHE3 is “C (>70%)”. For the same compound, the “Fecal fluid content (Δ from vehicle)” value in assay [1] is “A (<5)”. Also, the response vs control in vivo at 15 mg/kg in assay [1] (setting [2]) is greater than 200%; in assay [1] (setting [3]) it was 50 to 70%.

Regarding `Cc1cc(S(=O)(=O)NCCOCCOCCNC(=O)NCCCCNC(=O)NCCOCCOCCNS(=O)(=O)c2ccc(O[C@H]3c4cc(Cl)cc(Cl)c4C[C@@H]3N3CCC[C@@H](N(C)C)C3)c(C)c2)ccc1O[C@H]1c2cc(Cl)cc(Cl)c2C[C@@H]1N1CCC[C@@H](N(C)C)C1` [Example 26, 3-[2-(2-[2-[(4-[[(1S,2S)-4,6-Dichloro-2-[(3R)-3-(dimethylamino)piperidin-1-yl]-2,3-dihydro-1H-inden-1-yl]oxy]-3-methylbenzene)sulfonamido]ethoxy]ethoxy)ethyl]-1-[4-([[2-(2-[2-[4-[[(1S,2S)-4,6-dichloro-2-[(3R)-3-(dimethylamino)piperidin-1-yl]-2,3-dihydro-1H-inden-1-yl]oxy]-3-methylbenzenesulfonamido]ethoxy]ethoxy)ethyl]carbamoyl]amino)butyl]urea; bis(trifluoroacetic acid)], at NHE3, the “% inhibition” value is given as “C (>70%)”. Besides, in assay [1], the “Fecal fluid content (Δ from vehicle)” value is listed as “B (5-10)”. The response vs control in vivo at 15 mg/kg in assay [1] (setting [2]) fell in the range of 150 to 200%; in assay [1] (setting [3]) it was 50 to 70%.

Regarding `Cc1cc(Cl)cc2c1C[C@H](N1CCC[C@@H](N(C)C)C1)[C@H]2Oc1ccc(S(=O)(=O)NCCOCCOCCNC(=O)NCCCCNC(=O)NCCOCCOCCNS(=O)(=O)c2ccc(O[C@H]3c4cc(Cl)cc(C)c4C[C@@H]3N3CCC[C@@H](N(C)C)C3)cc2)cc1` [Example 28, 3-[2-(2-[2-[(4-[[(1S,2S)-6-Chloro-2-[(3R)-3-(dimethylamino)piperidin-1-yl]-4-methyl-2,3-dihydro-1H-inden-1-yl]oxy]benzene)sulfonamido]ethoxy]ethoxy)ethyl]-1-[4-([[2-(2-[2-[(4-[[(1S,2S)-6-chloro-2-[(3R)-3-(dimethylamino)piperidin-1-yl]-4-methyl-2,3-dihydro-1H-inden-1-yl]oxy]benzene)sulfonamido]ethoxy]ethoxy)ethyl]carbamoyl]amino)butyl]urea; bis(trifluoroacetic acid)], at NHE3, the “% inhibition” value is “C (>70%)” and the pIC50 result is recorded as “C (NHE3 pIC50 > 7)”. For the same compound, in assay [1], the “Fecal fluid content (Δ from vehicle)” value was “B (5-10)”. Also, the response vs control in vivo at 15 mg/kg in assay [1] (setting [2]) lay in the range of 150 to 200%. In assay [1] (setting [3]), the response vs control in vivo at 15 mg/kg is greater than 70%.

With `Cc1cc(S(=O)(=O)NCCOCCOCCNC(=O)NCCCCNC(=O)NCCOCCOCCNS(=O)(=O)c2ccc(O[C@H]3c4cc(Cl)cc(C)c4C[C@@H]3N3CCC[C@@H](N(C)C)C3)c(C)c2)ccc1O[C@H]1c2cc(Cl)cc(C)c2C[C@@H]1N1CCC[C@@H](N(C)C)C1` [Example 29], at NHE3, the “% inhibition” value was “C (>70%)” and the pIC50 result is “C (NHE3 pIC50 > 7)”. Moreover, the “Fecal fluid content (Δ from vehicle)” value in assay [1] is reported as “A (<5)”. The response vs control in vivo at 15 mg/kg in assay [1] (setting [2]) was in the range of 150 to 200%. The response vs control in vivo at 15 mg/kg in assay [1] (setting [3]) lay within 50 to 70%.

Turning to `Cc1cc(Cl)cc2c1C[C@H](N1CCC[C@@H](N(C)C)C1)[C@H]2Oc1ccc(S(=O)(=O)NCCOCCOCCNC(=O)NCCCCNC(=O)NCCOCCOCCNS(=O)(=O)c2ccc(O[C@H]3c4cc(Cl)cc(C)c4C[C@@H]3N3CCC[C@@H](N(C)C)C3)c(F)c2)cc1F` [Example 30, 3-[2-(2-[2-[(4-[[(1S,2S)-6-Chloro-2-[(3R)-3-(dimethylamino)piperidin-1-yl]-4-methyl-2,3-dihydro-1H-inden-1-yl]oxy]-3-fluorobenzene)sulfonamido]ethoxy]ethoxy)ethyl]-1-[4-([[2-(2-[2-[(4-[[(1S,2S)-6-chloro-2-[(3R)-3-(dimethylamino)piperidin-1-yl]-4-methyl-2,3-dihydro-1H-inden-1-yl]oxy]-3-fluorobenzene)sulfonamido]ethoxy]ethoxy)ethyl]carbamoyl]amino)butyl]urea; bis(trifluoroacetic acid)], at NHE3, the “% inhibition” value is reported as “C (>70%)” and the pIC50 result is “C (NHE3 pIC50 > 7)”. Moreover, the “Fecal fluid content (Δ from vehicle)” value in assay [1] was “C (>10)”. For the same compound, the response vs control in vivo at 15 mg/kg in assay [1] (setting [2]) is greater than 200%. Further, in assay [1] (setting [3]), the response vs control in vivo at 15 mg/kg lay in the range of 50 to 70%.

As to `O=C(NCCCCNC(=O)NCCOCCOCCNS(=O)(=O)c1ccc(O[C@H]2c3cc(Cl)cc(Cl)c3C[C@@H]2N2CCNCC2)cc1)NCCOCCOCCNS(=O)(=O)c1ccc(O[C@H]2c3cc(Cl)cc(Cl)c3C[C@@H]2N2CCNCC2)cc1` [Example 31, 3-[2-(2-[2-[(4-[[(1S,2S)-4,6-Dichloro-2-(piperazin-1-yl)-2,3-dihydro-1H-inden-1-yl]oxy]benzene)sulfonamido]ethoxy]ethoxy)ethyl]-1-[4-([[2-(2-[2-[(4-[[(1S,2S)-4,6-dichloro-2-(piperazin-1-yl)-2,3-dihydro-1H-inden-1-yl]oxy]benzene)sulfonamido]ethoxy]ethoxy)ethyl]carbamoyl]amino)butyl]urea; bis(trifluoroacetic acid)], the “% inhibition” value at NHE3 is recorded as “C (>70%)”. The “Fecal fluid content (Δ from vehicle)” value in assay [1] is “B (5-10)”. Also, the response vs control in vivo at 15 mg/kg in assay [1] (setting [2]) is greater than 200%; in assay [1] (setting [3]), 50 to 70%.
